Experimental data: PubChem BioAssay (NCI)
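These data come from cells grown in 96-well plates and exposed to compound for 48 hours at five concentrations. TGI is the concentration that stops growth completely.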

Legend:
Assay in all cases: DTP human tumour cell line panel, 48 h
BT-549 breast = tested on: BT-549 breast
CCRF-CEM leukemia = tested on: CCRF-CEM leukemia
HCT-15 colon = tested on: HCT-15 colon
K-562 leukemia = tested on: K-562 leukemia
MALME-3M melanoma = tested on: MALME-3M melanoma
MDA-N = tested on: MDA-N
NCI-H23 lung = tested on: NCI-H23 lung
OVCAR-3 ovarian = tested on: OVCAR-3 ovarian
RPMI-8226 leukemia = tested on: RPMI-8226 leukemia
SF-268 CNS = tested on: SF-268 CNS
SK-MEL-28 melanoma = tested on: SK-MEL-28 melanoma
SK-MEL-5 melanoma = tested on: SK-MEL-5 melanoma
SN12C renal = tested on: SN12C renal
T-47D breast = tested on: T-47D breast
TK-10 renal = tested on: TK-10 renal
U251 CNS = tested on: U251 CNS
UACC-62 melanoma = tested on: UACC-62 melanoma
UO-31 renal = tested on: UO-31 renal
MCF7 breast = tested on: MCF7 breast
A549 NSCLC = tested on: A549 NSCLC

## CCCC(=O)Nc1cc(/C=C/C(=O)N2CC(CCl)c3c2cc(OCc2ccccc2)c2[nH]cc(C)c32)n(C)c1 (configuration not stated)
BT-549 breast
  TGI: 3.14 µM
CCRF-CEM leukemia
  TGI: 0.244 µM
HCT-15 colon
  TGI: 0.93 µM
K-562 leukemia
  TGI: 0.904 µM
MALME-3M melanoma
  TGI: 0.353 µM
MDA-N
  TGI: 1.67 µM
NCI-H23 lung
  TGI: 0.0654 µM
OVCAR-3 ovarian
  TGI: 0.512 µM
RPMI-8226 leukemia
  TGI: 1.3 µM
SF-268 CNS
  TGI: 0.907 µM
SK-MEL-28 melanoma
  TGI: 1.54 µM
SK-MEL-5 melanoma
  TGI: 0.131 µM
SN12C renal
  TGI: > 25 µM
T-47D breast
  TGI: 1.7 µM
TK-10 renal
  TGI: 2.47 µM
U251 CNS
  TGI: > 9.21 µM
UACC-62 melanoma
  TGI: 0.0934 µM
UO-31 renal
  TGI: 0.215 µM

## O=C1NC(=S)N/C1=C\c1cc2c(=O)c3ccccc3sc2s1
BT-549 breast
  TGI: > 100 µM
HCT-15 colon
  TGI: > 100 µM
K-562 leukemia
  TGI: > 100 µM
MALME-3M melanoma
  TGI: > 100 µM
MCF7 breast
  TGI: > 100 µM
MDA-N
  TGI: > 100 µM
NCI-H23 lung
  TGI: > 100 µM
OVCAR-3 ovarian
  TGI: > 100 µM
RPMI-8226 leukemia
  TGI: > 100 µM
SF-268 CNS
  TGI: > 100 µM
SK-MEL-28 melanoma
  TGI: > 100 µM
SK-MEL-5 melanoma
  TGI: > 100 µM
SN12C renal
  TGI: > 100 µM
T-47D breast
  TGI: > 100 µM
TK-10 renal
  TGI: > 100 µM
U251 CNS
  TGI: > 100 µM
UACC-62 melanoma
  TGI: > 100 µM
UO-31 renal
  TGI: > 100 µM

## CCCCc1ccc(Nc2nc(Cl)c3ncn(COCCOC(C)=O)c3n2)cc1
A549 NSCLC
  TGI: 51.2 µM
BT-549 breast
  TGI: 35.8 µM
CCRF-CEM leukemia
  TGI: > 100 µM
HCT-15 colon
  TGI: 31.6 µM
K-562 leukemia
  TGI: 55.5 µM
MALME-3M melanoma
  TGI: 31.7 µM
MCF7 breast
  TGI: 93.7 µM
MDA-N
  TGI: 37 µM
NCI-H23 lung
  TGI: 31.4 µM
OVCAR-3 ovarian
  TGI: 43.4 µM
RPMI-8226 leukemia
  TGI: 55.4 µM
SF-268 CNS
  TGI: 36.9 µM
SK-MEL-5 melanoma
  TGI: 30.9 µM
SN12C renal
  TGI: 39.8 µM
T-47D breast
  TGI: 65.9 µM
TK-10 renal
  TGI: 35.1 µM
U251 CNS
  TGI: 35 µM
UACC-62 melanoma
  TGI: 31.9 µM
UO-31 renal
  TGI: 29.7 µM

## CCOc1ccc2nc3nc(=O)[nH]c(C)c3c(NCCCN(CC)CC)c2c1
A549 NSCLC
  TGI: > 100 µM
BT-549 breast
  TGI: > 100 µM
CCRF-CEM leukemia
  TGI: > 100 µM
HCT-15 colon
  TGI: > 100 µM
K-562 leukemia
  TGI: > 100 µM
MALME-3M melanoma
  TGI: > 100 µM
MCF7 breast
  TGI: > 100 µM
MDA-N
  TGI: > 100 µM
NCI-H23 lung
  TGI: > 100 µM
OVCAR-3 ovarian
  TGI: > 100 µM
SF-268 CNS
  TGI: > 100 µM
SK-MEL-28 melanoma
  TGI: > 100 µM
SK-MEL-5 melanoma
  TGI: > 100 µM
SN12C renal
  TGI: > 100 µM
T-47D breast
  TGI: > 100 µM
TK-10 renal
  TGI: > 100 µM
U251 CNS
  TGI: > 100 µM
UACC-62 melanoma
  TGI: > 100 µM
UO-31 renal
  TGI: > 100 µM

## Cc1cc(O)c2c(c1O)C(=O)c1cccc(O)c1C2=O
A549 NSCLC
  TGI: > 100 µM
BT-549 breast
  TGI: > 100 µM
CCRF-CEM leukemia
  TGI: > 100 µM
HCT-15 colon
  TGI: > 100 µM
K-562 leukemia
  TGI: > 100 µM
MCF7 breast
  TGI: > 100 µM
MDA-N
  TGI: > 100 µM
NCI-H23 lung
  TGI: > 100 µM
OVCAR-3 ovarian
  TGI: > 100 µM
RPMI-8226 leukemia
  TGI: > 100 µM
SF-268 CNS
  TGI: > 100 µM
SK-MEL-28 melanoma
  TGI: > 100 µM
SK-MEL-5 melanoma
  TGI: > 100 µM
SN12C renal
  TGI: > 100 µM
T-47D breast
  TGI: > 100 µM
TK-10 renal
  TGI: > 100 µM
U251 CNS
  TGI: > 100 µM
UACC-62 melanoma
  TGI: > 100 µM
UO-31 renal
  TGI: > 100 µM

## CC1(C)CC(O)C2=C(O1)C(=O)c1ncccc1C2=O (configuration not stated)
A549 NSCLC
  TGI: 23.4 µM
BT-549 breast
  TGI: 3.18 µM
CCRF-CEM leukemia
  TGI: > 20.7 µM
HCT-15 colon
  TGI: 12 µM
MALME-3M melanoma
  TGI: 3.17 µM
MCF7 breast
  TGI: 5.34 µM
MDA-N
  TGI: 3.45 µM
NCI-H23 lung
  TGI: 3.24 µM
OVCAR-3 ovarian
  TGI: 5.4 µM
RPMI-8226 leukemia
  TGI: > 22.6 µM
SF-268 CNS
  TGI: 4.85 µM
SK-MEL-28 melanoma
  TGI: 3.16 µM
SK-MEL-5 melanoma
  TGI: 3.1 µM
SN12C renal
  TGI: 3.68 µM
T-47D breast
  TGI: 5.91 µM
TK-10 renal
  TGI: 20.1 µM
U251 CNS
  TGI: 3.21 µM
UACC-62 melanoma
  TGI: 3.15 µM
UO-31 renal
  TGI: 4.34 µM

## C=C1CCCC2[C@](C)(CC3=C(Cl)C(=O)C=C(OC)C3=O)C(C)CC[C@]12C (some centres not stated)
A549 NSCLC
  TGI: 11.1 µM
BT-549 breast
  TGI: 11.4 µM
CCRF-CEM leukemia
  TGI: 11.6 µM
HCT-15 colon
  TGI: 13.9 µM
K-562 leukemia
  TGI: 13.1 µM
MALME-3M melanoma
  TGI: 16.3 µM
MCF7 breast
  TGI: 6.18 µM
MDA-N
  TGI: 13.7 µM
NCI-H23 lung
  TGI: 13.1 µM
OVCAR-3 ovarian
  TGI: 11.9 µM
RPMI-8226 leukemia
  TGI: 14.6 µM
SF-268 CNS
  TGI: 11.6 µM
SK-MEL-28 melanoma
  TGI: 17 µM
SK-MEL-5 melanoma
  TGI: 12.5 µM
SN12C renal
  TGI: 12.5 µM
TK-10 renal
  TGI: 11.6 µM
U251 CNS
  TGI: 11.2 µM
UACC-62 melanoma
  TGI: 12.7 µM
UO-31 renal
  TGI: 5.77 µM

## COc1cc(/C=C2/SC(c3ccccc3)N(Cc3ccccc3)C2=O)cc(OC)c1OC (configuration not stated)
A549 NSCLC
  TGI: > 100 µM
BT-549 breast
  TGI: > 100 µM
HCT-15 colon
  TGI: > 100 µM
K-562 leukemia
  TGI: > 100 µM
MALME-3M melanoma
  TGI: > 100 µM
MCF7 breast
  TGI: > 100 µM
MDA-N
  TGI: > 100 µM
NCI-H23 lung
  TGI: > 100 µM
OVCAR-3 ovarian
  TGI: > 100 µM
RPMI-8226 leukemia
  TGI: 75.1 µM
SF-268 CNS
  TGI: > 100 µM
SK-MEL-28 melanoma
  TGI: > 100 µM
SK-MEL-5 melanoma
  TGI: 28 µM
SN12C renal
  TGI: > 100 µM
T-47D breast
  TGI: > 100 µM
TK-10 renal
  TGI: > 100 µM
U251 CNS
  TGI: > 100 µM
UACC-62 melanoma
  TGI: > 100 µM
UO-31 renal
  TGI: > 100 µM

## N#CC(N)c1ccc(OCCCCCCCCCCOc2ccc(C(N)C#N)cc2)cc1 (configuration not stated)
A549 NSCLC
  TGI: > 100 µM
BT-549 breast
  TGI: > 100 µM
CCRF-CEM leukemia
  TGI: 67.8 µM
HCT-15 colon
  TGI: > 100 µM
K-562 leukemia
  TGI: > 100 µM
MALME-3M melanoma
  TGI: > 100 µM
MCF7 breast
  TGI: > 100 µM
MDA-N
  TGI: > 100 µM
NCI-H23 lung
  TGI: > 100 µM
OVCAR-3 ovarian
  TGI: > 100 µM
SF-268 CNS
  TGI: > 100 µM
SK-MEL-28 melanoma
  TGI: > 100 µM
SK-MEL-5 melanoma
  TGI: > 100 µM
SN12C renal
  TGI: > 100 µM
T-47D breast
  TGI: > 100 µM
TK-10 renal
  TGI: > 100 µM
U251 CNS
  TGI: > 100 µM
UACC-62 melanoma
  TGI: > 100 µM
UO-31 renal
  TGI: > 100 µM

## O=C1C(C(O)(C(F)(F)Cl)C(F)(F)Cl)CCCC1C(O)(C(F)(F)Cl)C(F)(F)Cl (configuration not stated)
A549 NSCLC
  TGI: > 10 µM
BT-549 breast
  TGI: > 10 µM
HCT-15 colon
  TGI: > 10 µM
MALME-3M melanoma
  TGI: > 10 µM
MCF7 breast
  TGI: > 10 µM
MDA-N
  TGI: > 10 µM
NCI-H23 lung
  TGI: > 10 µM
OVCAR-3 ovarian
  TGI: > 10 µM
SF-268 CNS
  TGI: > 10 µM
SK-MEL-28 melanoma
  TGI: > 10 µM
SK-MEL-5 melanoma
  TGI: > 10 µM
T-47D breast
  TGI: > 10 µM
TK-10 renal
  TGI: > 10 µM
U251 CNS
  TGI: > 10 µM
UACC-62 melanoma
  TGI: > 10 µM

## CC1=NN(C(=O)c2ccccc2O)C(=O)/C1=C/c1cccc(O)c1
A549 NSCLC
  TGI: > 100 µM
BT-549 breast
  TGI: > 100 µM
CCRF-CEM leukemia
  TGI: > 100 µM
HCT-15 colon
  TGI: > 100 µM
K-562 leukemia
  TGI: > 100 µM
MALME-3M melanoma
  TGI: > 100 µM
MCF7 breast
  TGI: > 100 µM
MDA-N
  TGI: > 100 µM
RPMI-8226 leukemia
  TGI: > 100 µM
SF-268 CNS
  TGI: > 100 µM
SK-MEL-28 melanoma
  TGI: > 100 µM
SK-MEL-5 melanoma
  TGI: > 100 µM
SN12C renal
  TGI: > 100 µM
T-47D breast
  TGI: > 100 µM
TK-10 renal
  TGI: > 100 µM
U251 CNS
  TGI: > 100 µM
UACC-62 melanoma
  TGI: 2.74 µM

## COc1ccc(NC(=S)N/N=C\c2ccc(NC(C)=O)cc2)cc1
A549 NSCLC
  TGI: > 100 µM
BT-549 breast
  TGI: > 100 µM
CCRF-CEM leukemia
  TGI: > 100 µM
MALME-3M melanoma
  TGI: > 100 µM
MDA-N
  TGI: > 100 µM
NCI-H23 lung
  TGI: > 100 µM
OVCAR-3 ovarian
  TGI: > 100 µM
RPMI-8226 leukemia
  TGI: > 100 µM
SK-MEL-28 melanoma
  TGI: > 100 µM
SK-MEL-5 melanoma
  TGI: > 100 µM
SN12C renal
  TGI: > 100 µM
T-47D breast
  TGI: > 100 µM
TK-10 renal
  TGI: > 100 µM
U251 CNS
  TGI: > 100 µM
UACC-62 melanoma
  TGI: > 100 µM
UO-31 renal
  TGI: > 100 µM
